From paper PMC6270304, “Synthesis, Structure and Cytotoxic Activity of New Acetylenic Derivatives of Betulin” (Molecules, 2013)
In brackets after ≈: the same amount, converted by molar mass.

Tests used:
[1] = test system: SW707 (human colorectal adenocarcinoma); test: Antiproliferative assay in vitro (SRB); type: cell-based; details: for IC50: Homo sapiens, SW707, read-out: Cytotoxic activity IC50, Human SW707
Procedure: (§1) Cytotoxic activities of all newly synthesized compounds including betulin (1) were tested in SRB or MTT (in the case of leukemia cells) assay for their antiproliferative activity in vitro against three human cancer cell lines: SW707 (colorectal adenocarcinoma), CCRF/CEM (leukemia), T47D (breast cancer), and murine leukemia P388 as well as Balb3T3 normal fibroblasts cell lines. […] A value of less than 4 μg/mL was considered as an antiproliferative activity criterion for synthetic compounds [31].
(§2) The following established in vitro cell lines were applied: SW707 (human colorectal adenocarcinoma), CCRF/CEM (human leukemia), T47D (human breast cancer), P388 (mouse leukemia) and Balb3T3 (normal mouse fibroblasts). All lines were obtained from the American Type Culture Collection (Rockville, MD, USA) and maintained at the Cell Culture Collection of the Institute of Immunology and Experimental Therapy (Wroclaw, Poland).
(§3) Twenty-four hours before addition of the tested agents, the cells were plated in 96-well plates (Sarstedt, Numbrecht, Germany) at a density of 10^4 cells per well in 100 μL of culture medium. The cells were cultured in the opti-MEM medium supplemented with 2 mM glutamine (Gibco, Grand Island, NY, USA), streptomycin (50 μg/mL), penicillin (50 U/mL) (both antibiotics from Polfa, Tarchomin, Poland) and 5% fetal calf serum (Gibco). The cell cultures were maintained at 37 °C in humid atmosphere saturated with 5% CO2.
(§4) The compounds were dissolved in DMSO and culture medium (1:9) to the concentration of 1 mg/mL, and subsequently diluted in culture medium to reach the required concentrations (ranging from […]).
(§5) The in vitro cytotoxic effect of all agents was examined using the SRB assay for adherent cells and MTT assay for leukemia cells as described by Wietrzyk et al.. Each compound in given concentration was tested in triplicates in each experiment, which was repeated 3–5 times.

[2] = test system: T47D (human breast cancer); test: Antiproliferative assay in vitro (SRB); type: cell-based; details: for IC50: Homo sapiens, T47D, read-out: Cytotoxic activity IC50, Human T47D
Procedure: as §1, §2, §3, §4, §5

P388 (mouse leukemia) = test: Antiproliferative assay in vitro (MTT); type: cell-based; details: for IC50: Mus musculus, P388, read-out: Cytotoxic activity IC50, Murine P388
Procedure: as §1, §2, §3, §4, §5

[3] = test system: CCRF/CEM (human leukemia); test: Antiproliferative assay in vitro (MTT); type: cell-based; details: for IC50: Homo sapiens, CCRF-CEM, read-out: Cytotoxic activity IC50, Human CCRF/CEM
Procedure: as §1, §2, §3, §4, §5

[4] = test system: investigated cancer cell lines (T47D, CCRF/CEM, SW707, P388, Balb3T3); test: cells; type: cell-based, human and murine
Procedure: as §1, §2, §3, §4, §5

[5] = test system: Balb3T3 (normal mouse fibroblasts); test: Antiproliferative assay in vitro (SRB); type: cell-based
Procedure: as §1, §2, §3, §4, §5

SMILES | IC50 [1] [mg/L] | IC50 [2] [mg/L] | IC50 (P388 (mouse leukemia)) [mg/L] | IC50 [3] [mg/L] | melting point [°C] | cytotoxicity relative to betulin (1) [4] | Cytotoxic activity IC50, Murine Balb3T3 [5] | Cytotoxic activity IC50, Human SW707 [1] | Cytotoxic activity IC50, Human T47D [2] | Cytotoxic activity IC50, Human CCRF/CEM [3] | Cytotoxic activity IC50, Murine P388 (P388 (mouse leukemia)) | ID50 value against human leukemia (CCRF/CEM) cell line ([3]; CCRF/CEM, abstract wording) [mg/L] | selectivity index (SI) ([3]; ratio IC50 of normal fibroblast (Balb3T3) / IC50 on CCRF/CEM)
C#CCCOC(=O)OC[C@]12CCC(C(=C)C)C1C1CCC3[C@@]4(C)CC[C@H](O)C(C)(C)C4CC[C@@]3(C)[C@]1(C)CC2 (stereo partly drawn) [Compound 3b, 28-O-(3-Butynyloxycarbonyl)betulin] | 22.6 ± 11.9 (≈ 41.9 µM) | 6.9 ± 2.3 (≈ 12.8 µM) | 3.6 ± 1.3 (≈ 6.68 µM) | 5.2 ± 1.4 (≈ 9.65 µM) | 86 to 88 | – | – | – | – | – | – | – | –
C#CCOC(=O)OC[C@]12CCC(C(=C)C)C1C1CCC3[C@@]4(C)CC[C@H](O)C(C)(C)C4CC[C@@]3(C)[C@]1(C)CC2 (stereo partly drawn) [Compound 3a, 28-O-Propargyloxycarbonylbetulin] | 9.2 ± 7.1 (≈ 17.5 µM) | 7.2 ± 1.7 (≈ 13.7 µM) | 2.9 ± 0.2 (≈ 5.53 µM) | 3.2 ± 0.4 (≈ 6.1 µM) | – | three to four times more cytotoxic than betulin | – | – | – | – | – | – | –
C=C(C)C1CC[C@]2(COC(=O)OCC#CC)CC[C@]3(C)C(CCC4[C@@]5(C)CC[C@H](OC(=O)OCC#CC)C(C)(C)C5CC[C@]43C)C12 (stereo partly drawn) [Compound 4c, 3,28-O,O'-Di(2-butynyloxycarbonyl)betulin] | – | – | 50.4 ± 31.1 (≈ 79.4 µM) | – | 70 to 73 | – | Neg | Neg | Neg | Neg | – | – | –
C=C(C)[C@@H]1CC[C@]2(COC(C)=O)CC[C@]3(C)[C@H](CC[C@@H]4[C@@]5(C)CC[C@H](O)C(C)(C)[C@@H]5CC[C@]43C)[C@@H]12 [Compound 7a, 28-O-acetylbetulin] | 5.1 ± 2.5 (≈ 10.5 µM) | 4.9 ± 0.6 (≈ 10.1 µM) | 12.5 ± 14.7 (≈ 25.8 µM) | 3.4 ± 0.3 (≈ 7.01 µM) | – | – | – | – | – | – | – | – | –
C=C(C)C1CC[C@]2(COC(=O)OCC)CC[C@]3(C)C(CCC4[C@@]5(C)CC[C@H](O)C(C)(C)C5CC[C@]43C)C12 (stereo partly drawn) [Compound 3d, 28-O-Ethoxycarbonylbetulin] | 20.8 ± 14.7 (≈ 40.4 µM) | 6.6 ± 1.3 (≈ 12.8 µM) | 3.8 ± 1.9 (≈ 7.38 µM) | 4.1 ± 0.2 (≈ 7.96 µM) | 94 to 96 | – | – | – | – | – | – | – | –
C#CC(=O)OC[C@]12CCC(C(=C)C)C1C1CCC3[C@@]4(C)CC[C@H](OC(=O)C#C)C(C)(C)C4CC[C@@]3(C)[C@]1(C)CC2 (stereo partly drawn) [Compound 6a, 3,28-O,O'-Dipropynoylbetulin] | 9.5 ± 1.9 (≈ 17.4 µM) | 16.2 ± 4.3 (≈ 29.6 µM) | 31.9 ± 1.4 (≈ 58.3 µM) | 9.9 ± 7 (≈ 18.1 µM) | 102 to 104 | – | – | – | – | – | – | – | –
C=C(C)C1CC[C@]2(COC(C)=O)CC[C@]3(C)C(CCC4[C@@]5(C)CC[C@H](OC(C)=O)C(C)(C)C5CC[C@]43C)C12 (stereo partly drawn) [Compound 7b, 3,28-O,O'-diacetylbetulin] | – | – | 40.2 ± 5 (≈ 76.3 µM) | 34.1 ± 6.4 (≈ 64.7 µM) | – | – | Neg | Neg | Neg | – | – | – | –
C#CCCOC(=O)O[C@H]1CC[C@@]2(C)C(CC[C@]3(C)C2CCC2C4C(C(=C)C)CC[C@]4(COC(C)=O)CC[C@]23C)C1(C)C (stereo partly drawn) [Compound 8b, 28-O-Acetyl-3-O'-(3-butynyloxycarbonyl)betulin] | – | – | 46.7 ± 16.2 (≈ 80.4 µM) | – | 118 to 121 | – | Neg | Neg | Neg | Neg | – | – | –
C#CCCOC(=O)OC[C@]12CCC(C(=C)C)C1C1CCC3[C@@]4(C)CC[C@H](OC(=O)OCCC#C)C(C)(C)C4CC[C@@]3(C)[C@]1(C)CC2 (stereo partly drawn) [Compound 4b, 3,28-O,O'-Di(3-butynyloxycarbonyl)betulin] | – | – | – | – | 140 to 142 | – | Neg | Neg | Neg | Neg | Neg | – | –
C=C(C)C1CC[C@]2(COC(C)=O)CC[C@]3(C)C(CCC4[C@@]5(C)CC[C@H](OC(=O)OCC#CC)C(C)(C)C5CC[C@]43C)C12 (stereo partly drawn) [Compound 8c, 28-O-Acetyl-3-O'-(2-butynyloxycarbonyl)betulin] | – | – | – | – | 126 to 129 | – | Neg | Neg | Neg | Neg | Neg | – | –
C=C(C)C1CC[C@]2(COC(=O)OCC#CC)CC[C@]3(C)C(CCC4[C@@]5(C)CC[C@H](O)C(C)(C)C5CC[C@]43C)C12 (stereo partly drawn) [Compound 3c, 28-O-(2-Butynyloxycarbonyl)betulin] | 36.9 ± 6.3 (≈ 68.5 µM) | 20.1 ± 5.3 (≈ 37.3 µM) | 5.5 ± 2.8 (≈ 10.2 µM) | 6.8 ± 2.9 (≈ 12.6 µM) | 112 to 114 | – | – | – | – | – | – | – | –
C#CCOC(=O)O[C@H]1CC[C@@]2(C)C(CC[C@]3(C)C2CCC2C4C(C(=C)C)CC[C@]4(COC(C)=O)CC[C@]23C)C1(C)C (stereo partly drawn) [Compound 8a, 28-O-Acetyl-3-O'-propargyloxycarbonylbetulin] | – | – | – | – | 188 to 189 | – | Neg | Neg | Neg | Neg | Neg | – | –
C=C(C)C1CC[C@]2(COC(C)=O)CC[C@]3(C)C(CCC4[C@@]5(C)CC[C@H](OC(=O)OCC)C(C)(C)C5CC[C@]43C)C12 (stereo partly drawn) [Compound 8d, 28-O-Acetyl-3-O'-(ethoxycarbonyl)betulin] | – | – | – | – | 200 to 202 | – | Neg | Neg | Neg | Neg | Neg | – | –
C#CCOC(=O)OC[C@]12CCC(C(=C)C)C1C1CCC3[C@@]4(C)CC[C@H](OC(=O)OCC#C)C(C)(C)C4CC[C@@]3(C)[C@]1(C)CC2 (stereo partly drawn) [Compound 4a, 3,28-O,O'-Di(propargyloxycarbonyl)betulin] | – | – | 33.4 ± 1.7 (≈ 55 µM) | – | 125 to 127 | – | Neg | Neg | Neg | Neg | – | – | –
C#CC(=O)OCC12CCC(C(=C)C)C1C1CCC3C4(C)CCC(O)C(C)(C)C4CCC3(C)C1(C)CC2 (stereo not drawn) [Compound 5a, 28-O-Propynoylbetulin] | 14.9 ± 3.3 (≈ 30.1 µM) | 9.1 ± 1.9 (≈ 18.4 µM) | 0.4 ± 0.1 (≈ 0.808 µM) | 0.02 ± 0.001 (≈ 0.0404 µM) | – | – | – | – | – | – | – | 0.02 (≈ 0.0404 µM) | 15
C=C(C)C1CC[C@]2(COC(=O)OCC)CC[C@]3(C)C(CCC4[C@@]5(C)CC[C@H](OC(=O)OCC)C(C)(C)C5CC[C@]43C)C12 (stereo partly drawn) [Compound 4d, 3,28-O,O'-Di(ethoxycarbonyl)betulin] | – | 69.1 ± 12.4 (≈ 118 µM) | 46.8 ± 21.6 (≈ 79.7 µM) | 52.6 ± 8.3 (≈ 89.6 µM) | 84 to 86 | – | Neg | Neg | – | – | – | – | –
C=C(C)C1CC[C@]2(COC(=O)CC)CC[C@]3(C)C(CCC4[C@@]5(C)CC[C@H](OC(=O)CC)C(C)(C)C5CC[C@]43C)C12 (stereo partly drawn) [Compound 6c, 3,28-O,O'-Dipropanoylbetulin] | 42.3 ± 9.4 (≈ 76.2 µM) | 26.6 ± 6.8 (≈ 47.9 µM) | 68.1 ± 14.8 (≈ 123 µM) | – | 142 to 144 | – | Neg | – | – | Neg | – | – | –
C=C(C)C1CC[C@]2(COC(=O)CC)CC[C@]3(C)C(CCC4[C@@]5(C)CC[C@H](O)C(C)(C)C5CC[C@]43C)C12 (stereo partly drawn) [Compound 5c, 28-O-Propanoylbetulin] | 29.2 ± 24.4 (≈ 58.5 µM) | 12.1 ± 4.4 (≈ 24.3 µM) | 3.3 ± 0.8 (≈ 6.62 µM) | 8.1 ± 0.9 (≈ 16.2 µM) | 160 to 162 | – | – | – | – | – | – | – | –
